# Test results published in paper PMC6544261, “A novel thermostable and halophilic thioredoxin reductase from the Red Sea Atlantis II hot brine pool” (PLoS ONE, 2019).
# Target: T1, ATII-TrxR (Cupriavidus basilensis, UniProt A0A643FQQ5)
# T1 construct: codon-optimised synthetic gene in pET-28a(+), His-tagged, E. coli BL21(DE3), HisTrap; dimer
# T1 sequence (A0A643FQQ5 1-552): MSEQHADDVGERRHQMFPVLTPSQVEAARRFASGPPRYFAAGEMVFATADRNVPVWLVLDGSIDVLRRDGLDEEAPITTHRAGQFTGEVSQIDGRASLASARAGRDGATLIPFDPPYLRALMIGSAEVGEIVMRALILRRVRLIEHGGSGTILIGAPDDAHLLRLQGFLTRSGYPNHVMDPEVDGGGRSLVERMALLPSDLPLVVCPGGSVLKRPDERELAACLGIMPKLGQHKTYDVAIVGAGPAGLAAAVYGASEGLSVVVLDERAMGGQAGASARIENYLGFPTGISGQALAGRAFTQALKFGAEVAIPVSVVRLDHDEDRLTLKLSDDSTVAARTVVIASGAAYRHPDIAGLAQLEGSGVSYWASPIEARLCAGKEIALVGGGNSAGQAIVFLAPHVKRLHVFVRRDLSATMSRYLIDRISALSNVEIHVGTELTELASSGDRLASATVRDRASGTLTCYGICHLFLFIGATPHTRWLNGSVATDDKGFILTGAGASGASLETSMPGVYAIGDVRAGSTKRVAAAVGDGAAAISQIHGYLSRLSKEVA
# Assay: flavin absorbance at […] nm, co-elution of […] and […] nm peaks
# Type: binding
# Details: cofactor bound to enzyme as purified
structure (smiles),measurement,value
Cc1cc2nc3c(=O)[nH]c(=O)nc-3n(C[C@H](O)[C@H](O)[C@H](O)COP(=O)(O)OP(=O)(O)OC[C@H]3O[C@@H](n4cnc5c(N)ncnc54)[C@H](O)[C@@H]3O)c2cc1C [FAD],mol FAD/mol native enzyme,The binding of ATII-TrxR protein to the cofactor FAD was confirmed
